Earlier results, collected in patent US7563779B2, “L-ergothioneine, milk thistle, and S-adenosylmethionine for the prevention, treatment and repair of liver damage” (Nutramax Laboratories, priority 1998, dated 2009).

Columns and labels:
[1] = tested on: lipid peroxidation in liver tissue; details: exogenous L-ergothioneine, liver tissue of rats
[2] = tested on: lipid peroxide formation in mouse liver homogenate; details: FIG. 5
liver lipid accumulation = details: rats chronically intoxicated with ethanol
[3] = tested on: liver nodules, pre-neoplastic lesions and hepatocellular carcinomas; details: administration of SAMe

Row | Structure (SMILES) | lipid peroxidation by toxic compounds [1] | LPO formation [2] | decomposition of existing LPO [2] | lipid accumulation (liver lipid accumulation) | amount of early reversible nodules [3] | development of late pre-neoplastic lesions and hepatocellular carcinomas [3]
1 | C[N+](C)(C)[C@@H](Cc1c[nH]c(=S)[nH]1)C(=O)[O-] [L-ergothioneine] | prevent lipid peroxidation | inhibited LPO formation | enhanced the decomposition of existing LPO |  |  | 
2 | C[S+](CC[C@H](N)C(=O)O)C[C@H]1O[C@@H](n2cnc3c(N)ncnc32)[C@H](O)[C@@H]1O (stereo partly drawn) [SAMe, S-adenosylmethionine] |  |  |  | decrease lipid accumulation | fall in the amount of early reversible nodules | prevention of the development of late pre-neoplastic lesions and hepatocellular carcinomas
